The values below come from ChEMBL document CHEMBL1150879, “Synthesis of (+/-)-cassumunins A and B, new curcuminoid antioxidants having protective activity of the living cell against oxidative damage” (J Nat Prod, 1998).

In general, IC50 refers to the point on the concentration scale where inhibition reaches its midpoint.

The test relates to Thymocyte. Put plainly: Inhibition of H2O2-induced cell death of rat thymocyte assessed as cell viability. The format is functional, cell-based.
In the case of `COc1cc(/C=C/C(=O)CC(=O)/C=C/c2cc(OC)c(O)c(C(C)/C=C/c3ccc(OC)c(OC)c3)c2)ccc1O` (stereo not drawn) [CASSUMUNIN A], the IC50 was 170 nM.
Take `COc1cc(/C=C/C(=O)CC(=O)/C=C/c2cc(OC)c(O)c(C(C)/C=C/c3cc(OC)c(OC)cc3OC)c2)ccc1O` (stereo not drawn) [CASSUMUNIN B]: the concentration for half-maximal inhibition (IC50) is 220 nM.
In the case of `COc1cc(/C=C/C(=O)CC(=O)/C=C/c2ccc(O)c(OC)c2)ccc1O` [CURCUMIN], the half-maximal inhibitory concentration (IC50) was 1020 nM.
